Assay results reported in PMC3445516 (PLoS ONE, 2012).
Read-outs that look alike come from different tables or passages of the source. Each block holds one compound with its values, some of them ahead of it.

Legend:
Assay in all cases: Ambit kinase profiling, competition binding
FLT3(D835Y) = target: T1, FLT3(D835Y) (Homo sapiens, UniProt P36888, D835Y)
T1 construct: purchased Ambit Biosciences (KINOMEscan)
T1 sequence (P36888 27-993 D835Y): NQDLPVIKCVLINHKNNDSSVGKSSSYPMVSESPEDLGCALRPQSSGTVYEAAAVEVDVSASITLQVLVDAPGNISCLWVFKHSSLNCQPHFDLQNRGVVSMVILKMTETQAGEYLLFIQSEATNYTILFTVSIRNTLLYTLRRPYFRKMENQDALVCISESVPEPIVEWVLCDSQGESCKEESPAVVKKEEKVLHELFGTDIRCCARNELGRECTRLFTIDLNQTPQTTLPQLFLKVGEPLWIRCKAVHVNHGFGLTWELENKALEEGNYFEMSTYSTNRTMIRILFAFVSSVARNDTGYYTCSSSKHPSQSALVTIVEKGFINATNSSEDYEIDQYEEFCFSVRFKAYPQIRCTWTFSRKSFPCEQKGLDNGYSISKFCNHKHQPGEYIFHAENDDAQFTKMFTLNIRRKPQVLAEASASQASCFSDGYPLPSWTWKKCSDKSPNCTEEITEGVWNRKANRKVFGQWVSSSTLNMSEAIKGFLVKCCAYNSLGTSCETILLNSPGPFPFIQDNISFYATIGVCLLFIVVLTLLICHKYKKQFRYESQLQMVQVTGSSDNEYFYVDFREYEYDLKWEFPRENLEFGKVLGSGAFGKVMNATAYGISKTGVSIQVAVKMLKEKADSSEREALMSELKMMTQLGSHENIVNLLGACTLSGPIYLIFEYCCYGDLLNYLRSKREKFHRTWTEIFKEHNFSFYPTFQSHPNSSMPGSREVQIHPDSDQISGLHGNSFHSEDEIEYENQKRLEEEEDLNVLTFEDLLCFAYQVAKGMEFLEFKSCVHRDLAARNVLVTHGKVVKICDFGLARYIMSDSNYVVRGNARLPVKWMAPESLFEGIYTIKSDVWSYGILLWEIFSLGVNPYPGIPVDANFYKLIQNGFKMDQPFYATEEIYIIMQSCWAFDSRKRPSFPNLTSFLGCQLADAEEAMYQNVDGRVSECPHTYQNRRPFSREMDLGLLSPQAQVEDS
Method: (§1) Also included in the kinase profile are four isoforms of PKC (δ, ε, η, θ) and eight isoforms of CAMKs (CAMKIα, δ, γ; CAMKIIα, β, δ, γ; CAMK4).
(§2) The global kinase profiling experiment was performed by Ambit Biosciences.

MRCKA = target: T2, MRCKA (Homo sapiens, UniProt Q5VT25)
T2 construct: purchased Ambit Biosciences (KINOMEscan)
Method: as §1, §2

PRKD1 = target: T3, PRKD1 (Homo sapiens, UniProt Q15139)
T3 construct: purchased Ambit Biosciences (KINOMEscan)
T3 sequence (Q15139 1-912): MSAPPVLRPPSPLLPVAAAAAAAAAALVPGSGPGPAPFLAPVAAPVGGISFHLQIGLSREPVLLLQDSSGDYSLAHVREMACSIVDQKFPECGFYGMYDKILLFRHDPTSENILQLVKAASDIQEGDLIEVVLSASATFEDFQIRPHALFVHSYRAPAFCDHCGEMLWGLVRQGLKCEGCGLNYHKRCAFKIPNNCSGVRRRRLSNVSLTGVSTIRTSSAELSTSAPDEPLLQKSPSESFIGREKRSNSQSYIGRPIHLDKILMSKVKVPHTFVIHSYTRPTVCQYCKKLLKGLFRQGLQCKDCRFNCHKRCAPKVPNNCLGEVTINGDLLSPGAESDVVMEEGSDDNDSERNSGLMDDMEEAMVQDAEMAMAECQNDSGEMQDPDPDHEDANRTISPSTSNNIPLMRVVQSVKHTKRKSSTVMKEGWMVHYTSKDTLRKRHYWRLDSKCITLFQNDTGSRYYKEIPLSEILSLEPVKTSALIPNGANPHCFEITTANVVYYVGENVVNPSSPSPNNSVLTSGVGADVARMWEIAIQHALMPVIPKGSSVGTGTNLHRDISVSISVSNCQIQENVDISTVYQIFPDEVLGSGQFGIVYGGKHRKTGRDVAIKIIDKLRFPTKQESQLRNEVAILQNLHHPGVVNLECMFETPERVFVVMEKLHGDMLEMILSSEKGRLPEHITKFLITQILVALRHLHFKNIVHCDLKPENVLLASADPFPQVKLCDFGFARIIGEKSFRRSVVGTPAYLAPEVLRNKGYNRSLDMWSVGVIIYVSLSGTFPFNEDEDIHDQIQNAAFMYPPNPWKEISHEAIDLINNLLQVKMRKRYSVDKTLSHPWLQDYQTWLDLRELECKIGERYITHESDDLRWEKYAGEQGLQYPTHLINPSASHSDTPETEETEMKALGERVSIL
Method: as §1, §2

RIPK2 = target: T4, RIPK2 (Homo sapiens, UniProt O43353)
T4 construct: purchased Ambit Biosciences (KINOMEscan)
Method: as §1, §2

TGFBR1 = target: T5, TGFBR1 (Homo sapiens, UniProt P36897)
T5 construct: purchased Ambit Biosciences (KINOMEscan)
T5 sequence (P36897 34-503): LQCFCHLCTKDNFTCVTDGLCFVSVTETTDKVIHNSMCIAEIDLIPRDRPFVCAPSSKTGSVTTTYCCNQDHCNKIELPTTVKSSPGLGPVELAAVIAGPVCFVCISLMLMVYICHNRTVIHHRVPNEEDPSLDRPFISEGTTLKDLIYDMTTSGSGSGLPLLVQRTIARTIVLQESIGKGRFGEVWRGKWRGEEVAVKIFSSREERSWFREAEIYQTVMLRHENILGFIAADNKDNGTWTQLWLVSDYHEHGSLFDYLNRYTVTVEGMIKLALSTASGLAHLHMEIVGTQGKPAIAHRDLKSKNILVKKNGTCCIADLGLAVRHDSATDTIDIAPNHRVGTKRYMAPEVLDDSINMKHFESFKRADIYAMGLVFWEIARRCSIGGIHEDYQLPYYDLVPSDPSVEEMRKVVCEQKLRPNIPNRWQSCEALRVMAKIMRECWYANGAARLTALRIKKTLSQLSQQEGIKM
Method: as §1, §2

YES = target: T6, YES (Homo sapiens, UniProt P07947)
T6 construct: purchased Ambit Biosciences (KINOMEscan)
Method: as §1, §2

T4 sequence (O43353 whole entry): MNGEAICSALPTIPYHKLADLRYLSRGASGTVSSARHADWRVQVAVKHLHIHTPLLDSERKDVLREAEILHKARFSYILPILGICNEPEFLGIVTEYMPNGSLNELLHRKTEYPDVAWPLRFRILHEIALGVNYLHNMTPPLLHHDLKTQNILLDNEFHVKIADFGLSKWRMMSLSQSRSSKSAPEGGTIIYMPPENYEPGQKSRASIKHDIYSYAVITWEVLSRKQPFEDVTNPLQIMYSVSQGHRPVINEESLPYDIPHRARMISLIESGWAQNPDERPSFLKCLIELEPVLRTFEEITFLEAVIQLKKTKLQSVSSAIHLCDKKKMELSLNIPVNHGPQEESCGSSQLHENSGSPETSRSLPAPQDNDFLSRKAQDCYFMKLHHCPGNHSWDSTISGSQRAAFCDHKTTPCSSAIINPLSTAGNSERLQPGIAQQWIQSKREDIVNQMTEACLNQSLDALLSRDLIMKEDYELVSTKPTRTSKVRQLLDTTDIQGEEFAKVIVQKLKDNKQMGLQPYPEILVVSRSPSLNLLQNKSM
T6 sequence (P07947 whole entry): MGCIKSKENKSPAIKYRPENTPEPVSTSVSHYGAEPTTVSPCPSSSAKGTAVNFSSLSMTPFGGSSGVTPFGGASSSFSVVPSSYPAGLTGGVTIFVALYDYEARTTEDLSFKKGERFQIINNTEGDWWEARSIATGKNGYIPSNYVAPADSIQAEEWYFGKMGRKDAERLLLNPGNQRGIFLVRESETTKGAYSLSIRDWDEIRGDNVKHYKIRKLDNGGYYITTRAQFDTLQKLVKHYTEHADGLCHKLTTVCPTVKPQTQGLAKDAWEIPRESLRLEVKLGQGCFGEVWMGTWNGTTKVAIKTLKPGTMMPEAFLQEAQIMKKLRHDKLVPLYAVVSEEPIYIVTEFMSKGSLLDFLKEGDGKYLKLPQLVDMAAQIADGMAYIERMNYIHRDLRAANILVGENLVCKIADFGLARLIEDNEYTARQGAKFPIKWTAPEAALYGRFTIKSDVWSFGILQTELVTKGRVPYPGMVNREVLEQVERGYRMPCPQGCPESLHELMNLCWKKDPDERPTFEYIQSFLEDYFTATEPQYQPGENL
T2 sequence (Q5VT25 whole entry): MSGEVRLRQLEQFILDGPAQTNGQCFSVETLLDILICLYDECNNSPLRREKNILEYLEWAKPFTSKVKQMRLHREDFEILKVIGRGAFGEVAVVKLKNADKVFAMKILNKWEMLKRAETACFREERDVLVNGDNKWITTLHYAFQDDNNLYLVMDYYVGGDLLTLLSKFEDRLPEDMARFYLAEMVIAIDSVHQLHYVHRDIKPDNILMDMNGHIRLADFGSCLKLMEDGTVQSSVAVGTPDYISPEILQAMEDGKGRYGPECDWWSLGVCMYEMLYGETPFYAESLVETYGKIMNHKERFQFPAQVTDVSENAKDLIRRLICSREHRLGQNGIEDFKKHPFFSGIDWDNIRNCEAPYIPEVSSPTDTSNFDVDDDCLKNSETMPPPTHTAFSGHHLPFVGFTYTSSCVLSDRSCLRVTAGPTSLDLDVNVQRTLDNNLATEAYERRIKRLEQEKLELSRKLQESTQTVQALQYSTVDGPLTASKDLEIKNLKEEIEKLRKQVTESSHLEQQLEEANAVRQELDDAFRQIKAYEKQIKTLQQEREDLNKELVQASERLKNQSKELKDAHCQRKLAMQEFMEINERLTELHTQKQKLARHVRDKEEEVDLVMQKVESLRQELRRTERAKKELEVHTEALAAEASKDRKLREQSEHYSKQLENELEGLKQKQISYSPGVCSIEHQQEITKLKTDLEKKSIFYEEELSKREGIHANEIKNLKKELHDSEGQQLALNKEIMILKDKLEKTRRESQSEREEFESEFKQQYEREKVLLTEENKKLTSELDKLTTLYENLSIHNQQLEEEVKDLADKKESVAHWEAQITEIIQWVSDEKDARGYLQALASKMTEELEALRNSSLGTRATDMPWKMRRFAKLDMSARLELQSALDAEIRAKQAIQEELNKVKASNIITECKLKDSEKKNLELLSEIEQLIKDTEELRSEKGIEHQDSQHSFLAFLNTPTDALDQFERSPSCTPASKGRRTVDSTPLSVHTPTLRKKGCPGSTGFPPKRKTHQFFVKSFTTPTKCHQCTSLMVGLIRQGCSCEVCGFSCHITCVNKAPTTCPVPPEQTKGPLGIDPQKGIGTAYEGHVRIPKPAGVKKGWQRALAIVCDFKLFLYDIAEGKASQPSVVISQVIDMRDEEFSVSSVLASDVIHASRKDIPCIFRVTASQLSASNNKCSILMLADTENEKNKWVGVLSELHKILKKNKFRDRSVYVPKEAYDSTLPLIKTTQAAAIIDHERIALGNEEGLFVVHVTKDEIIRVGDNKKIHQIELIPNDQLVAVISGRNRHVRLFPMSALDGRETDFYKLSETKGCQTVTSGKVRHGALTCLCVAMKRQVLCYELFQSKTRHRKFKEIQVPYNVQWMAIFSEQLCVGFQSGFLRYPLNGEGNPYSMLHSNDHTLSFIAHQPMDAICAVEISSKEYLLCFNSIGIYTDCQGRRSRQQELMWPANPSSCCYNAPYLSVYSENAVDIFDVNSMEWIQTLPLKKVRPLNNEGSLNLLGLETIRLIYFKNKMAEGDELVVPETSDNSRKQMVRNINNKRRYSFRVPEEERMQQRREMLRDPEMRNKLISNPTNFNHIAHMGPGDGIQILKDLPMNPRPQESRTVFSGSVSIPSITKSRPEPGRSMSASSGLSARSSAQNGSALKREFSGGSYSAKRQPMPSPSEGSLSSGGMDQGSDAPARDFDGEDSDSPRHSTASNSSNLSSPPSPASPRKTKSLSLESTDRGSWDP

- inhibition at 10 µM (FLT3(D835Y); FLT3(D835Y), 10 µM, read-out: % Competition): 76%
- inhibition at 10 µM (MRCKA; MRCKA, 10 µM, read-out: % Competition): 99%
- inhibition at 10 µM (PRKD1; PRKD1 (PKD1), 10 µM, read-out: % Competition): 92%
- inhibition at 10 µM (RIPK2; RIPK2, 10 µM, read-out: % Competition): 97%
- inhibition at 10 µM (TGFBR1; TGFBR1, 10 µM, read-out: % Competition): 91%
- inhibition at 10 µM (YES; YES, 10 µM, read-out: % Competition): 73%
Structure (SMILES): Fc1ccc(-c2c(-c3ccncc3)[nH]c3nccnc23)cc1 [Compound 122]

Structure (SMILES): CC(O)CNc1cc(-c2[nH]c3cccnc3c2-c2ccc(F)cc2)ccn1 (stereo not drawn) [Compound 140]
- inhibition at 10 µM (FLT3(D835Y); read-out: % Competition): < 50%
- inhibition at 10 µM (MRCKA; read-out: % Competition): < 50%
- inhibition at 10 µM (PRKD1; read-out: % Competition): 83%
- inhibition at 10 µM (RIPK2; read-out: % Competition): 94%
- inhibition at 10 µM (TGFBR1; read-out: % Competition): < 50%
- inhibition at 10 µM (YES; read-out: % Competition): < 50%

- inhibition at 10 µM (FLT3(D835Y); FLT3(D835Y), compound concentration 10 uM, read-out: Percent Competition): 76%
- inhibition at 10 µM (MRCKA; MRCKA, compound concentration 10 uM, read-out: Percent Competition): 99%
- inhibition at 10 µM (PRKD1; PRKD1, compound concentration 10 uM, read-out: Percent Competition): 92%
- inhibition at 10 µM (RIPK2; RIPK2, compound concentration 10 uM, read-out: Percent Competition): 97%
- inhibition at 10 µM (TGFBR1; TGFBR1, compound concentration 10 uM, read-out: Percent Competition): 91%
- inhibition at 10 µM (YES; YES, compound concentration 10 uM, read-out: Percent Competition): 73%
Structure (SMILES): Fc1ccc(-c2c(-c3ccncc3)[nH]c3nccnc23)cc1 [RO1155697-000-005]
